US6284758A, “Angiogenesis promoters and angiogenesis potentiators” (priority 1997, dated 2001)

Legend:
[1] = Hypotensive action in rat; assay type: in vivo; conditions: 5 mg/kg, based on vasodilating action
[2] = Acute toxicity, oral, dog; conditions: in vivo, oral administration
[3] = test system: rat sponge model (angiogenesis); assay: Relationship between dose and angiogenesis promotion by compound A in rat sponge model; assay type: in vivo; conditions: for Hemoglobin amount in sponge vs vehicle (in words): 7 times in total, Dunnett test
Experimental: (§1) The test animal models were prepared in the same manner as in Experimental Example 1.
As a reagent, compound A (4-bromo-6-[3-(4-chlorophenyl)-propoxy]-5-(3-pyridylmethylamino)-3-(2H)-pyridazinone hydrochloride, 35 mg) produced by a conventional method was suspended in 0.5% methylcellulose solution (70 ml) in a mortar and used as a 5 mg/kg administration reagent.
This suspension was diluted two-fold and 5-fold with a vehicle (0.5% methylcellulose solution) to give 2.5 mg/kg administration reagent and 1 mg/kg administration reagent (respective dose 10 ml/kg). The vehicle (0.5% methylcellulose solution) was used as a control. The vehicle was obtained by dissolving methylcellulose (5 g, manufactured by Kishida Chemical Industries, Ltd.) in distilled water (1000 ml).
Each reagent (compound A) and the vehicle were orally administered repeatedly (7 times in total) from the day of sponge embedding at a dose of 10 ml/kg twice a day for 4 days. The sponge was removed on the next day of the final administration, and hemoglobin in the sponge was calculated in the same manner as Experimental in Example 1.
Each group contained […] animals and the obtained data were expressed in mean±standard error. For the evaluation of the angiogenic effect, a Dunnett test was performed using the vehicle administration group as a control to examine significant difference. The significance was ascribed at less than 5% risk rate.

rat and dog = assay: Acute toxicity, oral, rat and dog (overall finding); assay type: in vivo; conditions: oral administration
[4] = Acute toxicity, oral, rat; conditions: in vivo, oral administration
[5] = test system: rat sponge model (angiogenic effect of b-FGF); assay: Potentiation of angiogenic effect of b-FGF by compound A in rat sponge model (b-FGF 1 μg/sponge); assay type: in vivo; conditions: for Hemoglobin in sponge at 4 days after embedding: mean±standard error, number of animals 10
Experimental: as §1
As a reagent, compound A (4-bromo-6-[3-(4-chlorophenyl)-propoxy]-5-(3-pyridylmethylamino)-3-(2H)-pyridazinone hydrochloride, 50 mg) produced by a conventional method was suspended in 0.5% methylcellulose solution (100 ml) in a mortar and used.
The vehicle (0.5% methylcellulose solution) was obtained by dissolving methylcellulose (5 g, manufactured by Kishida Chemical Industries, Ltd.) in distilled water (1000 ml).
A 0.1% bovine serum albumin (BSA)-physiological saline solution was prepared by dissolving BSA (0.1 g, Sigma) in physiological saline (100 Ml).
A b-FGF solution was prepared by dissolving recombinant b-FGF (20 μg, manufactured by BTI) in 0.1% BSA-physiological saline solution (2 ml).
A hemostatic gelatin sponge was the same as that used in Experimental Example 1.
The test group was divided into 3 groups. A sponge wetted with 100 μl of 0.1% BSA-physiological saline solution was embedded in group 1. A sponge (1 μg b-FGF/sponge) wetted with b-FGF solution (100 μl) was embedded in group 2 and group 3.
The vehicle was orally administered to group 1 and group 2, and the reagent (compound A) was orally administered to group 3 repeatedly from the day of sponge embedding at the dose of 10 ml/kg twice a day for 4 days.
In every test group, the administration began from the evening (single administration) of the very day of embedding. The time of administration of the drug was around 9 a.m. for the first administration and around 7 p.m. for the second administration. In consideration of the effect of the drug, the drug was not administered on the very day of sponge removal (7 times of administration in total).
After 4 days from the embedding, an excess amount of pentobarbital was intravenously injected to the animals for euthanasia. The back was opened, and the tissue surrounding the embedded sponge was removed and the surface of the sponge was photographed. The sponge was taken out and hemoglobin in the sponge was calculated in the same manner as in Experimental Example 1.
The obtained data were expressed in mean±standard error. For the evaluation of the angiogenic effect, a multiple comparison test by Tukey method was performed to examine significant difference. The significance was ascribed at less than 5% risk rate.

[6] = test system: rat sponge model (angiogenesis); assay: Angiogenesis promotion by compound A in rat sponge model (embedded gelatin sponge; hemoglobin in sponge and photograph); assay type: in vivo
Experimental: Rats were anesthetized by intraperitoneal administration of sodium pentobarbital (50 mg/kg), and the dorsal median line was incised for about 1 cm and an air pocket was made subcutaneously at about 2.5 cm toward the tail side with a Kocher clamp. A hemostatic gelatin sponge (Spongel®, 10 mm×10 mm×7 mm; manufactured by Yamanouchi Pharmaceutical Co., Ltd.) impregnated with physiological saline was embedded therein. The opening was sutured and antisepticized to give a test animal model.
As a reagent, compound A (4-bromo-6-[3-(4-chlorophenyl)-propoxy]-5-(3-pyridylmethylamino)-3-(2H)-pyridazinone hydrochloride, 100 mg) produced by a conventional method was suspended in 0.5% methylcellulose solution (100 ml) in a mortar and used.
As a control, a vehicle (0.5% methylcellulose solution) was used. The vehicle was obtained by dissolving methylcellulose (5 g, manufactured by Kishida Chemical Industries, Ltd.) in distilled water (1000 ml).
The reagent (compound A) and the vehicle were orally administered repeatedly from the day of sponge embedding at a dose of 10 ml/kg once a day for 4 days or 7 days. The administration was performed 30 minutes before anesthetizing the animal on the very day of embedding, and the sponge was removed on the next day of the final administration.
After 4 days or 7 days from the embedding, an excess amount of pentobarbitalwas intravenously injected to the animals for euthanasia. The back was opened, and the tissue surrounding the embedded sponge was removed and the surface of the sponge was photographed. The sponge was taken out and placed in a 0.1M aqueous ammonia (2 ml), which was stood for 4 hr to extract hemoglobin in the sponge. The extract (100 μl) was taken, and hemoglobin was quantitated using an assay kit (hemoglobin B-TESTWAKO; manufactured by Wako Pure Chemical Industries, Ltd.) and used as the index of angiogenesis. The amount of hemoglobin in the sponge was calculated by the following formula.
Amount of hemoglobin in sponge (mg/sponge)=hemoglobin (mg) in extract (100
μl)×20 (total extract 2 ml)
The obtained data were expressed in mean±standard error. For the evaluation of the angiogenic effect, an unpaired t-test was performed using the animals administered with the drug for 4 days or 7 days and respective vehicle groups as control to examine significant difference. The significance was ascribed at less than 5% risk rate.

[7] = day 4 and day 7, also seen with vehicle

Compound | Hypotensive action [1] | LD50 [2] | Hemoglobin amount in sponge vs vehicle (in words) ([3]; 2.5 mg/kg orally twice a day) | Hemoglobin amount in sponge vs vehicle (in words) ([3]; 5 mg/kg orally twice a day) | Effect at 5 mg/kg on hemoglobin amount, tendency (in words) ([3]; 5 mg/kg, postulated due to decrease in blood flow from hypotensive action) | Angiogenesis promotion effect at a dose substantially free from hypotensive action (in words) ([3]; rat) | Toxicity (in words) (rat and dog) | LD50 [4] | Observation of photograph: neovascularized blood vessels ([5]; day 4, group 3 (b-FGF and compound A, 5 mg/kg, co-administration) vs group 2 (b-FGF alone)) | Hemoglobin content vs group 1 and group 2 (in words) ([5]; group 3 (b-FGF and compound A, 5 mg/kg, co-administration), day 4) | Hemoglobin in sponge at 4 days after embedding ([5]; group 3: compound A 5 mg/kg orally twice a day (7 times in total) plus b-FGF (1 μg/sponge) in sponge, p < 0.01 relative to group 1 and group 2 (Tukey method)) | Time course of amount of hemoglobin in sponge (in words) [6, 7] | Time course of neovascularized blood vessels on the sponge surface (in words) [6, 7] | Amount of hemoglobin in sponge vs vehicle (in words) ([6]; day 7 of the test) | Observation of photograph: neovascularized blood vessels on the sponge surface ([6]; day 7 of the test, vs vehicle administration group) | Hemoglobin in sponge, 4 days after embedding ([6]; oral, 10 ml/kg (100 mg/100 ml suspension) once a day for 4 days, mean±standard error, number of animals 10, vehicle 6.216 ± 0.903) | Hemoglobin in sponge, 7 days after embedding ([6]; oral, 10 ml/kg (100 mg/100 ml suspension) once a day for 7 days, mean±standard error, number of animals 9, vehicle 9.585 ± 0.774, **p < 0.01 relative to vehicle, unpaired t-test) | Observation of photograph: neovascularized blood vessels ([5]; day 4, group 2 (b-FGF single administration) vs group 1 (BSA-physiological saline)) | Hemoglobin in sponge at 4 days after embedding ([5]; group 2: b-FGF (1 μg/sponge) in sponge, vehicle orally, group 1 (BSA-saline) 5.503 ± 0.562)
Cl.O=c1[nH]nc(OCCCc2ccc(Cl)cc2)c(NCc2cccnc2)c1Br [compound A, 4-bromo-6-[3-(4-chlorophenyl)-propoxy]-5-(3-pyridylmethylamino)-3-(2H)-pyridazinone hydrochloride] | causes hypotensive action in rat | ≥ 2000 mg/kg | showed a significant increase in hemoglobin amount | showed a significant increase in hemoglobin amount | the effect tended to weaken somewhat, though a significant difference was found | superior angiogenesis promotion effect at a dose substantially free from hypotensive action | extremely low toxic | ≥ 2000 mg/kg | showed still more neovascularized blood vessels than in group 2 | showed a significant increase in hemoglobin content as compared to group 1 (0.1% BSA-physiological saline solution group) and group 2 (b-FGF single administration group) | 14.995 ± 2.307 mg/sponge | showed an increase in the amount of hemoglobin in sponge at day 4 and day 7 of the test, in proportion to the number of days lapsed | showed an increase of neovascularized blood vessels on the sponge surface at day 4 and day 7 of the test in proportion to the number of days lapsed | showed a significant increase as compared to the vehicle administration group | showed more neovascularized blood vessels than in the vehicle administration group | 6.255 ± 0.807 mg/sponge | 16.351 ± 1.836 mg/sponge |  | 
b-FGF: recombinant b-FGF (20 μg, manufactured by BTI); basic fibroblast growth factor |  |  |  |  |  |  |  |  |  |  |  |  |  |  |  |  |  | visually showed more neovascularized blood vessels than in group 1 | 7.285 mg/sponge
